Laboratory results: patent publication US12370241B2, “Nasal powder formulation for treatment of hypoglycemia” (AMPHASTAR PHARMACEUTICALS, INC., priority 2015, dated 2025)
Like-named read-outs stand apart in the source and are kept apart here.

Experiments:
[1] = tested on: children with type 1 diabetes with induced hypoglycemia; details: injected (SC) (Stenninger 1993); cited from earlier work
[2] = tested on: patients with type 1 diabetes; assay: Phase III crossover study, intranasal vs IM glucagon after insulin-induced hypoglycemia (Example 9); assay type: in vivo, human; details: post-dosing
Procedure: A multiple center, randomized, two-way, crossover Phase III study in which patients with type 1 diabetes (T1D, n=75) were enrolled to evaluate the effectiveness and safety of a single dose of intranasally administered glucagon (the powder that is the subject of this invention) compared to glucagon administered by IM injection following insulin-induced hypoglycemia was conducted. The primary endpoint in this study was the proportion of patients who achieved an increase in blood glucose levels to ≥70 mg/dL within 30 minutes of treatment with glucagon or a […] increment in blood glucose within 30 minutes of treatment with glucagon. The protocol used insulin to reduce blood glucose levels to the hypoglycemic range (target nadir of <50 mg/dL).

adults with hypoglycemia = details: cited from earlier work
[3] = water; cited from earlier work

| Substance | Time for which plasma glucose levels continued to rise [1] | Time by which blood glucose increased to within the normal range in most subjects [2] | Time for which glucose levels continued to increase after administration (adults with hypoglycemia; adults with hypoglycemia, injected (Hvidberg 1994; Rosenfalck 1992)) | Time after dosing at which glucose levels reach a plateau (adults with hypoglycemia; adults with type 1 diabetes and insulin-induced hypoglycemia, injected (Rosenfalck 1992)) | Time for which glucose levels continued to increase after administration (adults with hypoglycemia; healthy adults with insulin induced hypoglycemia, injected (Hvidberg 1994)) | Aqueous solubility [3] |
| --- | --- | --- | --- | --- | --- | --- |
| glucagon [injected glucagon] | at least 45 minutes | about 15 minutes | at least 90 minutes | at least 90 minutes | at least 90 minutes | – |
| hydroxylpropyl-β-CD [HP-β-CD] | – | – | – | – | – | higher aqueous solubility than α-CD |
